How the values were obtained:
Type in all cases: cell-based, human
[1] = system: release of IFN-γ upon T cell activation; test: Fluorospot assay, IFN-γ release (DK1-TCL01, US1-TCL01); conditions: head prints TCL-02 DK1; 17 TCL-01 DK1 lines
Description: (§1) Grass allergic donors were recruited (cohort DK1 including 30 grass allergic individuals, DK2 including 24 grass allergic individuals and US1 including 15 grass allergic individuals). PBMCs were isolated from freshly drawn heparinized blood by gradient centrifugation on lymphoprep (Nycomed, Norway), washed twice and re-suspended in RPMI 1640 medium with HEPES and ultraglutamine (Cambrex, Belgium) supplemented with 5% v/v human AB-serum (Cambrex, Belgium), 100 units/ml penicillin, and 0.1 mg/ml streptomycin (Sigma, St Louis, USA) (referred to as 5% AB-medium). Aliquots of the isolated PBMCs were frozen and were thawed later to stimulate the T cell lines. Additionally either fresh or thawed PBMCs were used as antigen presenting cells (APCs) in the proliferation assay as described later. In some cases the PBMCs were freezed at this stage and thawed later on to continue the experiment as described in the following. The isolated PBMCs (fresh or thawed) were CD8 depleted by MACS magnetic depletion according to the manufacturer's instructions (Miltenyi Biotec, Bergisch Gladbach, Germany). On day 0 the CD8-depleted PBMCs (2×10^6/ml) were stimulated in 1 ml bulk cultures in AB medium in 24 well plates (Nunc, Denmark) with the mixture of natural allergens: nPhl p 1 (0.5 μg/ml), mix of nPhl p 2/nPhl p 3 (1.0 μg/ml), nPhl p 4 (0.5 μg/ml), nPhl p 5 (0.5 μg/ml) and nCyn d 1 (0.5 μg/ml). Amount of 65 U, 30 U, and 30 U recombinant IL-2 (Chiron, USA) were added per well at days 5, 6 and 7, respectively. On day 14 cells were harvested to obtain T cell line generation 01 (referred to as TCL01).
(§2) On day 14 the T cells of TCL01 were isolated, washed and counted. The isolated T cells of TCL01 generation were used to perform either ELISpot or Fluorospot assay. TCL01 were further re-stimulated as described in the next paragraph for use in T cell proliferation. The aliquot for use in T cell proliferation was re-stimulated on day 14 to carry out proliferation experiment at day 24.
(§3) In the Fluorospot assays, release of IL-5 and IFN-γ upon T cell activation (of donor derived lines DK1-TCL01, and US1-TCL01) with a peptide or a peptide-mix described herein was measured by Fluorospot assay kit (Mabtech AB) and procedures were followed as per manufacturer's instructions. Briefly anti-human IL-5 and anti-human IFN-γ coated 96 well plates were obtained and blocked with 10% AB serum in RPMI. The plates were washed thoroughly and the isolated T cells were plated and incubated with either single peptides (2 μg/ml) or peptide mixes (2 μg/ml), or allergens nPhl p1, nPhl p 2, nPhl p 3, nPhl p 4, nPhl p 5, Cyn d 1 at 2 μg/ml for 20 hrs/37° C./5% CO2. After the incubation time the cells were removed by emptying the plate. Detection antibodies 7-B6-1-FS-FITC (1:200) and 5A10-biotin (2 μg/ml) were diluted in PBS-0.1% BSA and were added to the plate and incubated for 2 hours/room temperature (RT). There-after the plates were washed and anti-FITC-green (1:200) and SA-Red (1:200) diluted in PBS±0.1% BSA were added and incubated for 1 hour/RT/dark. After the incubation period the plates were washed, emptied and fluorescence enhancer solution was added for 15 minutes/RT. Plates were emptied, fluorescence enhancer solution was firmly tapped out against a clean paper, soft plastic under drain was removed and the plates were left in the dark to dry. The counts were inspected in a fluorospot reader. Hit criteria for peptide were 20 SFCs/10^6 PBMCs, p≤0.05 and poisson 0.05 stimulated cells compared to background, and a stimulation index (SI)≥2.
(§4) The peptides were identified as hits if they fulfilled the criteria as mentioned below where stimulation index (SI) value of 2 or above, Poisson value=<0.05 and P value=<0.05, SFC>=20 (IL-5/IFN-g)/10^6 cells and CPM>=1000 (proliferation) SI can be defined as [[…]/medium control] in a Fluorospot assay and [counts per minute (cpm)/medium control] in a proliferation assay.

[2] = system: release of IL-5 upon T cell activation; test: Fluorospot assay, IL-5 release (DK1-TCL01, US1-TCL01); conditions: head prints TCL-02 DK1; text: 25 TCL-01 DK1 lines
Description: as §1, §2, §3, §4

[3] = system: allergen specific T cells; test: T cell proliferation assay (72 h) on donor derived T cell lines (TCL02/TCL03); conditions: for Proliferation % donor coverage (TCL-02 DK1): T cell lines TCL-02 DK1, 30 donors, hit criteria SI>=2, CPM>=1000; for Proliferation strength (TCL-02 DK1): T cell lines TCL-02 DK1, strength of response (average relative magnitude)
Excerpt: Isolated PBMCs (peripheral blood mononuclear cells) obtained from the donors described in Example 2 were CD8 depleted and the T cell lines were established by stimulating the cultures with nPhl p1, mix of nPhl p 2 and […] 5 and […] established for each of the donors tested by stimulating with the mixture of above listed allergens. Grass allergic donors were recruited (cohort DK1 including 30 grass allergic individuals, DK2 including 24 grass allergic individuals and US1 including 15 grass allergic individuals). PBMCs were isolated from freshly drawn heparinized blood by gradient centrifugation on lymphoprep (Nycomed, Norway), washed twice and re-suspended in RPMI 1640 medium with HEPES and ultraglutamine (Cambrex, Belgium) supplemented with 5% v/v human AB-serum (Cambrex, Belgium), 100 units/ml penicillin, and 0.1 mg/ml streptomycin (Sigma, St Louis, USA) (referred to as 5% AB-medium). Aliquots of the isolated PBMCs were frozen and were thawed later to stimulate the T cell lines. Additionally either fresh or thawed PBMCs were used as antigen presenting cells (APCs) in the proliferation assay as described later. In some cases the PBMCs were freezed at this stage and thawed later on to continue the experiment as described in the following. The isolated PBMCs (fresh or thawed) were CD8 depleted by MACS magnetic depletion according to the manufacturer's instructions (Miltenyi Biotec, Bergisch Gladbach, Germany). On day 0 the CD8-depleted PBMCs (2×10^6/ml) were stimulated in 1 ml bulk cultures in AB medium in 24 well plates (Nunc, Denmark) with the mixture of natural allergens: nPhl p 1 (0.5 μg/ml), mix of […]). […] On day 14 cells were harvested to obtain T cell line generation 01 (referred to as TCL01). Restimulation of T cell lines were performed in AB-medium with the thawed autologous PBMCs (10^6/well, irradiated 2500 Rad), the above mixture of natural allergens (concentration as mentioned above), and PHA-P (0.5 μg/ml, Difco, Detroit, Mich., USA). rIL-2 was added at day 17, 18 and 19. On day 24 cells were harvested to obtain T cell line generation 02 (referred as TCL02). T cells were isolated, washed, counted and used for T cell proliferation assay as described later. Remaining cells were frozen for later thawing and re-stimulations. The T cell line generation 2 (TCL02) were thawed and were re-stimulated with allogeneic Epstein Bar Virus transformed lymphoblastoid cell lines (EBV) B cells (JY cells, 10^5/well, irradiated 3500 Rad), allogeneic PBMCs (10^6/well, irradiated 2500 Rad), and 0.5 μg/ml PHA-P and subsequent addition of rIL-2 at days 3-5 to generate T cell line generation 03 (referred to as TCL03). […] To summarize ELISpot experiments were carried out at day 14 (with TCL01) and proliferation assay on either day 24 (with TCL02) or at day 34 (with TCL03). […] To ensure that all T cell epitopes regions from the major and intermediate grass allergens of the grass were identified T cell screening was carried out with either overlapping peptides or selected peptides. […] These were overlapping 20-mer peptides spanning the entire full length amino acid sequence of […] and selected high binder peptides from Phl p 4 were tested. Additionally 21, 15 mer peptides were tested which were derived from various group 1 and 5 allergens. Also, 67 peptides from homologous grass allergens were tested. Finally some reference peptides and mixes thereof were also tested. The 15-mer peptides were selected on the basis of predicted and measured promiscuous HLA binding and of sequence homology between known proteins sequences from the relevant pooideae grasses and the Bermuda grass. […] To get comprehensive data from all the donors the peptides were tested in both Fluorospot/Elispot (day 14, TCL01) and proliferation (day 24, TCL02).

SMILES | IFN-gamma % donor coverage (TCL-02 DK1) [1] [%] | IL-5-Fluorospotr % donor coverage (TCL-02 DK1) [2] [%] | Proliferation % donor coverage (TCL-02 DK1) [3] [%] | Proliferation strength (TCL-02 DK1) [3]
CC[C@H](C)[C@H](NC(=O)[C@@H](NC(=O)[C@H](CC(=O)O)NC(=O)[C@H](CCC(=O)O)NC(=O)[C@H](C)NC(=O)[C@H](CCC(=O)O)NC(=O)[C@@H](N)[C@@H](C)O)C(C)C)C(=O)N1CCC[C@H]1C(=O)N[C@@H](CCC(=O)O)C(=O)NCC(=O)N[C@@H](Cc1c[nH]c2ccccc12)C(=O)N[C@@H](CCCCN)C(=O)N[C@@H](C)C(=O)N[C@@H](CC(=O)O)C(=O)N[C@H](C(=O)N[C@@H](CO)C(=O)N[C@@H](Cc1ccc(O)cc1)C(=O)N[C@@H](CCC(=O)O)C(=O)N[C@@H](CO)C(=O)N[C@@H](CCCCN)C(=O)O)[C@@H](C)O [compound 13] | 8.00 | 16.00 | 43.33 | 8.10
CC[C@H](C)[C@H](NC(=O)[C@H](CCCCN)NC(=O)[C@@H](NC(=O)[C@H](CC(C)C)NC(=O)[C@@H](NC(=O)[C@@H]1CCCN1C(=O)[C@H](CCC(=O)O)NC(=O)CNC(=O)[C@H](CO)NC(=O)[C@H](CO)NC(=O)[C@H](CCC(=O)O)NC(=O)[C@@H](NC(=O)[C@@H]1CCCN1)C(C)C)C(C)C)C(C)C)C(=O)N[C@H](C(=O)N[C@@H](CC(=O)O)C(=O)N[C@@H](CCCCN)C(=O)N[C@@H](CC(N)=O)C(=O)N[C@@H](Cc1ccc(O)cc1)C(=O)N[C@@H](CCC(=O)O)C(=O)N[C@@H](Cc1c[nH]cn1)C(=O)O)[C@@H](C)O [compound 97] | 8.00 | 4.00 | 10.00 | 0.70
CC(C)C[C@H](NC(=O)[C@H](CCC(=O)O)NC(=O)CN)C(=O)N[C@@H](CCC(=O)O)C(=O)N[C@@H](CC(C)C)C(=O)N[C@@H](CCC(N)=O)C(=O)N[C@@H](Cc1ccccc1)C(=O)N[C@@H](CCCNC(=N)N)C(=O)N[C@@H](CCCNC(=N)N)C(=O)N[C@H](C(=O)N[C@@H](CCCCN)C(=O)N[C@@H](CO)C(=O)N[C@@H](CCCCN)C(=O)N[C@@H](Cc1ccc(O)cc1)C(=O)N1CCC[C@H]1C(=O)O)C(C)C [compound 118] | 4.00 | 25.00 | 65.52 | 11.50
CC[C@H](C)[C@H](NC(=O)[C@H](CCCCN)NC(=O)[C@H](CCC(=O)O)NC(=O)[C@@H](NC(=O)[C@@H](N)CC(C)C)[C@@H](C)CC)C(=O)N[C@@H](CC(N)=O)C(=O)N[C@@H](C)C(=O)NCC(=O)N[C@@H](Cc1ccccc1)C(=O)N[C@@H](CCCCN)C(=O)N[C@@H](C)C(=O)N[C@@H](C)C(=O)N[C@H](C(=O)N[C@@H](C)C(=O)N[C@@H](C)C(=O)O)C(C)C [compound 123] | 0.00 | 12.50 | 53.33 | 7.90
CC[C@H](C)[C@H](NC(=O)[C@H](CC(N)=O)NC(=O)[C@H](CC(C)C)NC(=O)[C@@H](NC(=O)[C@H](CC(C)C)NC(=O)[C@@H](NC(=O)[C@H](CCCCN)NC(=O)[C@H](C)NC(=O)[C@H](CC(=O)O)NC(=O)[C@@H](N)CO)[C@@H](C)O)C(C)C)C(=O)N[C@@H](CCCCN)C(=O)N[C@@H](Cc1ccc(O)cc1)C(=O)N[C@H](C(=O)N[C@@H](CCCNC(=N)N)C(=O)N1CCC[C@H]1C(=O)O)[C@@H](C)O [compound 125] | 4.00 | 12.50 | 31.03 | 6.30
CSCC[C@H](N)C(=O)N[C@@H](CCCNC(=N)N)C(=O)N[C@@H](CC(N)=O)C(=O)N[C@H](C(=O)N[C@@H](Cc1ccccc1)C(=O)N[C@@H](CC(=O)O)C(=O)N[C@@H](CC(=O)O)C(=O)N[C@H](C(=O)N[C@H](C(=O)N1CCC[C@H]1C(=O)N[C@@H](C)C(=O)N[C@@H](CC(=O)O)C(=O)N[C@@H](Cc1ccccc1)C(=O)N[C@@H](CCCCN)C(=O)N[C@H](C(=O)O)C(C)C)C(C)C)C(C)C)C(C)C [compound 126] | 0.00 | 8.33 | 37.93 | 0.40
CC[C@H](C)[C@H](NC(=O)[C@@H](NC(=O)[C@H](CCC(=O)O)NC(=O)[C@H](CC(=O)O)NC(=O)[C@H](Cc1ccccc1)NC(=O)[C@@H](NC(=O)[C@@H](N)CC(N)=O)C(C)C)C(C)C)C(=O)N1CCC[C@H]1C(=O)N[C@H](C(=O)N[C@@H](C)C(=O)N[C@@H](Cc1ccccc1)C(=O)N[C@H](C(=O)N[C@H](C(=O)NCC(=O)N[C@@H](CCCCN)C(=O)O)C(C)C)[C@@H](C)O)[C@@H](C)O [compound 127] | 0.00 | 0.00 | 10.34 | 2.80
